Measurements: patent US20240025884A1 (Dong-A ST Co., Ltd., priority 2022, published 2024)

Biological target: GCN2 (Homo sapiens (Human), UniProt Q9P2K8)
Test: GCN2 Biochemical Assay (TR-FRET, GFP-eIF2S1 substrate phosphorylation)
Details: read-out: IC50 (GCN2 Inhibitory Activity)
Procedure, shortened: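 In-house GCN2 (1.6 nM 2× stock) phosphorylates GFP-eIF2S1 (50 nM 2× stock) with ATP (0.2 mM 2× stock) and tRNA, pH 7.5, 70 min at room temperature; 10-point 3.16-fold compound series. TR-FRET detection with Tb-anti-phospho antibody, 2–3 h, Ex 340/Em 490/520 nm; artifact plate spiked with phospho-substrate.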

GCN2, sequence (Q9P2K8 whole entry): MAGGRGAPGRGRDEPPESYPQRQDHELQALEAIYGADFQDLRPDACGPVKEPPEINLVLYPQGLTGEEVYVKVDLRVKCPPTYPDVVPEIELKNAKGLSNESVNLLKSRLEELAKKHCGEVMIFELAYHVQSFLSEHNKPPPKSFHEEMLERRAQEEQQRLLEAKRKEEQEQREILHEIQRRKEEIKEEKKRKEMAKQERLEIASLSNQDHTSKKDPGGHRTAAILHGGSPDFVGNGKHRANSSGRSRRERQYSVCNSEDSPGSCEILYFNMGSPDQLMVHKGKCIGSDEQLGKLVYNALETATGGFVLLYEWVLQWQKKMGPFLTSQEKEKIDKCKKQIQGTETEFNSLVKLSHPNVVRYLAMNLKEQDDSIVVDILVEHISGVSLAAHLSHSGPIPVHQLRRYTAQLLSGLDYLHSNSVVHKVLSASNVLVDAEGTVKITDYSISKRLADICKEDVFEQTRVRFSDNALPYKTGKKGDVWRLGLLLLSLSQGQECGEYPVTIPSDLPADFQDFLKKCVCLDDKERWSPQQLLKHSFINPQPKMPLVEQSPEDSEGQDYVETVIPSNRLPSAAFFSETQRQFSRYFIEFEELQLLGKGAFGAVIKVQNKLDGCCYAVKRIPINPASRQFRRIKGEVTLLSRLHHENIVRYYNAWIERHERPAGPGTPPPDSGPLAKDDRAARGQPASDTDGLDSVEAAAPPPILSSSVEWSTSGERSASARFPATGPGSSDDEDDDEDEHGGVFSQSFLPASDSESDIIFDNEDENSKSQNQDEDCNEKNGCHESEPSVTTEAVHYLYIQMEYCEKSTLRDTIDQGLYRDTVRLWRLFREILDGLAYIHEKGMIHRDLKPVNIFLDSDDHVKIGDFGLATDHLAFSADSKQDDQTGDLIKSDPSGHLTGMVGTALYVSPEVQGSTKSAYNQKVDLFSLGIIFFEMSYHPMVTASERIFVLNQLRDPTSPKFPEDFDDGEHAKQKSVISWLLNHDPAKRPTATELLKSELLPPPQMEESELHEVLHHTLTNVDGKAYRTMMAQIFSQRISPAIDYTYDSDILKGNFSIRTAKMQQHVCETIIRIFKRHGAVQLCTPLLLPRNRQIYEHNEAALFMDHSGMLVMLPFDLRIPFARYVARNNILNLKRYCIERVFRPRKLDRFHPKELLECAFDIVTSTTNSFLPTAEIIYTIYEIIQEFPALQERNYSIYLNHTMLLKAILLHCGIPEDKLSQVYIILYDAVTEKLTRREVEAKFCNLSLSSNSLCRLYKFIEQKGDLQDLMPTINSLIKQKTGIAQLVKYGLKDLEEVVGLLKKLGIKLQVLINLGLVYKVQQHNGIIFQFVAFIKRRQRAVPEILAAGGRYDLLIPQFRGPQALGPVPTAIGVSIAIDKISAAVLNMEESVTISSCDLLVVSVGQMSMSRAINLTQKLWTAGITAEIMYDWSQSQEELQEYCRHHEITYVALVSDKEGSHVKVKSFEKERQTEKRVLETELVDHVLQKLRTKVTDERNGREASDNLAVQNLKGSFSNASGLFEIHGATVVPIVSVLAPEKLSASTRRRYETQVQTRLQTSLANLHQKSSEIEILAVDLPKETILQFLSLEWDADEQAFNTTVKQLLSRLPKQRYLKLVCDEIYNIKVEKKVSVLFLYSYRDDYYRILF

Row | IC50 | SMILES
1 | 0.01 to 0.1 µM | Cc1cnc(Nc2cc(C)n(C)n2)nc1-c1c[nH]c2c(N3Cc4cccc(I)c4C3=O)cccc12 [Example 275, 2-(3-(2-((1,5-dimethyl-1H-pyrazol-3-yl)amino)-5-methylpyrimidin-4-yl)-1H-indol-7-yl)-7-iodoisoindolin-1-one]
2 | 0.01 to 0.1 µM | Cc1cnc(Nc2cc(C)n(C)n2)nc1-c1c[nH]c2c(N3Cc4cccc(N)c4C3=O)cccc12 [Example 276, 7-amino-2-(3-(2-((1,5-dimethyl-1H-pyrazol-3-yl)amino)-5-methylpyrimidin-4-yl)-1H-indol-7-yl)isoindolin-1-one]
3 | 0.01 to 0.1 µM | Cc1cnc(Nc2cc(C)n(C)n2)nc1-c1c[nH]c2c(N3Cc4cccc(Br)c4C3=O)cccc12 [Example 277, 7-bromo-2-(3-(2-((1,5-dimethyl-1H-pyrazol-3-yl)amino)-5-methylpyrimidin-4-yl)-1H-indol-7-yl)isoindolin-1-one]
4 | < 0.01 µM | Cc1cnc(Nc2cc(C)n(C)n2)nc1-c1c[nH]c2c(N3Cc4c(I)cccc4C3=O)cccc12 [Example 278, 2-(3-(2-((1,5-dimethyl-1H-pyrazol-3-yl)amino)-5-methylpyrimidin-4-yl)-1H-indol-7-yl)-4-iodoisoindolin-1-one]
5 | 0.01 to 0.1 µM | COc1ccc2c(c1)C(=O)N(c1cccc3c(-c4nc(Nc5cc(C)n(C)n5)ncc4C)c[nH]c13)C2 [Example 279, 2-(3-(2-((1,5-dimethyl-1H-pyrazol-3-yl)amino)-5-methylpyrimidin-4-yl)-1H-indol-7-yl)-6-methoxyisoindolin-1-one]
6 | 0.1 to 1 µM | COc1cc(OC)c2c(c1)C(=O)N(c1cccc3c(-c4nc(Nc5cc(C)n(C)n5)ncc4C)c[nH]c13)C2 [Example 280, 2-(3-(2-((1,5-dimethyl-1H-pyrazol-3-yl)amino)-5-methylpyrimidin-4-yl)-1H-indol-7-yl)-4,6-dimethoxyisoindolin-1-one]
7 | < 0.01 µM | Cc1cnc(Nc2cc(C)n(C)n2)nc1-c1c[nH]c2c(N3Cc4c(O)cccc4C3=O)cccc12 [Example 281, 2-(3-(2-((1,5-dimethyl-1H-pyrazol-3-yl)amino)-5-methylpyrimidin-4-yl)-1H-indol-7-yl)-4-hydroxyisoindolin-1-one]
8 | < 0.01 µM | Cc1cnc(Nc2cc(C)n(C)n2)nc1-c1c[nH]c2c(N3Cc4cccc(F)c4C3=O)cccc12 [Example 282, 2-(3-(2-((1,5-dimethyl-1H-pyrazol-3-yl)amino)-5-methylpyrimidin-4-yl)-1H-indol-7-yl)-7-fluoroisoindolin-1-one]
9 | < 0.01 µM | Cc1cnc(Nc2cc(C)n(C)n2)nc1-c1c[nH]c2c(N3Cc4c(Br)ccc(F)c4C3=O)cccc12 [Example 283, 4-bromo-2-(3-(2-((1,5-dimethyl-1H-pyrazol-3-yl)amino)-5-methylpyrimidin-4-yl)-1H-indol-7-yl)-7-fluoroisoindolin-1-one]
10 | 0.01 to 0.1 µM | Cc1cnc(Nc2cc(C)n(C)n2)nc1-c1c[nH]c2c(N3Cc4ccc(Br)cc4C3=O)cccc12 [Example 284, 6-bromo-2-(3-(2-((1,5-dimethyl-1H-pyrazol-3-yl)amino)-5-methylpyrimidin-4-yl)-1H-indol-7-yl)isoindolin-1-one]
11 | < 0.01 µM | Cc1cnc(Nc2cc(C)n(C)n2)nc1-c1c[nH]c2c(N3Cc4cc(Br)cnc4C3=O)cccc12 [Example 285, 3-bromo-6-(3-(2-((1,5-dimethyl-1H-pyrazol-3-yl)amino)-5-methylpyrimidin-4-yl)-1H-indol-7-yl)-5,6-dihydro-7H-pyrrolo[3,4-b]pyridin-7-one]
12 | < 0.01 µM | Cc1cnc(Nc2cc(C)n(C)n2)nc1-c1c[nH]c2c(N3Cc4c(Br)ccnc4C3=O)cccc12 [Example 286, 4-bromo-6-(3-(2-((1,5-dimethyl-1H-pyrazol-3-yl)amino)-5-methylpyrimidin-4-yl)-1H-indol-7-yl)-5,6-dihydro-7H-pyrrolo[3,4-b]pyridin-7-one]
13 | < 0.01 µM | Cc1cnc2c(c1)CN(c1cccc3c(-c4nc(Nc5cc(C)n(C)n5)ncc4C)c[nH]c13)C2=O [Example 287, 6-(3-(2-((1,5-dimethyl-1H-pyrazol-3-yl)amino)-5-methylpyrimidin-4-yl)-1H-indol-7-yl)-3-methyl-5,6-dihydro-7H-pyrrolo[3,4-b]pyridin-7-one]
14 | < 0.01 µM | Cc1cnc(Nc2cc(C)n(C)n2)nc1-c1c[nH]c2c(N3Cc4cccnc4C3=O)cccc12 [Example 288, 6-(3-(2-((1,5-dimethyl-1H-pyrazol-3-yl)amino)-5-methylpyrimidin-4-yl)-1H-indol-7-yl)-5,6-dihydro-7H-pyrrolo[3,4-b]pyridin-7-one]
15 | < 0.01 µM | Cc1cnc(Nc2cc(C)n(C)n2)nc1-c1c[nH]c2c(N3Cc4c(Br)cncc4C3=O)cccc12 [Example 289, 7-bromo-2-(3-(2-((1,5-dimethyl-1H-pyrazol-3-yl)amino)-5-methylpyrimidin-4-yl)-1H-indol-7-yl)-1,2-dihydro-3H-pyrrolo[3,4-c]pyridin-3-one]
16 | < 0.01 µM | Cc1cnc(Nc2cc(C)n(C)n2)nc1-c1c[nH]c2c(N3Cc4c(ccnc4Br)C3=O)cccc12 [Example 290, 4-bromo-2-(3-(2-((1,5-dimethyl-1H-pyrazol-3-yl)amino)-5-methylpyrimidin-4-yl)-1H-indol-7-yl)-2,3-dihydro-1H-pyrrolo[3,4-c]pyridin-1-one]
17 | < 0.01 µM | Cc1cnc(Nc2cc(C)n(C)n2)nc1-c1c[nH]c2c(N3Cc4ccc(NC(=O)C5CC5)cc4C3=O)cccc12 [Example 291, N-(2-(3-(2-((1,5-dimethyl-1H-pyrazol-3-yl)amino)-5-methylpyrimidin-4-yl)-1H-indol-7-yl)-3-oxoisoindolin-5-yl)cyclopropanecarboxamide]
18 | 0.1 to 1 µM | Cc1cnc(Nc2cc(C)n(C)n2)nc1-c1c[nH]c2c(N3Cc4cccc(NC(=O)C5CCCCC5)c4C3=O)cccc12 [Example 292, N-(2-(3-(2-((1,5-dimethyl-1H-pyrazol-3-yl)amino)-5-methylpyrimidin-4-yl)-1H-indol-7-yl)-3-oxoisoindolin-4-yl)cyclohexanecarboxamide]
19 | 0.1 to 1 µM | Cc1cnc(Nc2cc(C)n(C)n2)nc1-c1c[nH]c2c(N3Cc4cccc(NC(=O)c5ccccc5)c4C3=O)cccc12 [Example 293, N-(2-(3-(2-((1,5-dimethyl-1H-pyrazol-3-yl)amino)-5-methylpyrimidin-4-yl)-1H-indol-7-yl)-3-oxoisoindolin-4-yl)benzamide]
20 | 0.01 to 0.1 µM | Cc1cnc(Nc2cc(C)n(C)n2)nc1-c1c[nH]c2c(N3Cc4c(NC(=O)c5ccccc5)cccc4C3=O)cccc12 [Example 294, N-(2-(3-(2-((1,5-dimethyl-1H-pyrazol-3-yl)amino)-5-methylpyrimidin-4-yl)-1H-indol-7-yl)-1-oxoisoindolin-4-yl)benzamide]
21 | 0.01 to 0.1 µM | Cc1cnc(Nc2cc(C)n(C)n2)nc1-c1c[nH]c2c(N3Cc4c(NC(=O)C5CCCCC5)cccc4C3=O)cccc12 [Example 295, N-(2-(3-(2-((1,5-dimethyl-1H-pyrazol-3-yl)amino)-5-methylpyrimidin-4-yl)-1H-indol-7-yl)-1-oxoisoindolin-4-yl)cyclohexanecarboxamide]
22 | < 0.01 µM | Cc1cnc(Nc2cc(C)n(C)n2)nc1-c1c[nH]c2c(N3Cc4c(NC(=O)N5CCOCC5)cccc4C3=O)cccc12 [Example 296, N-(2-(3-(2-((1,5-dimethyl-1H-pyrazol-3-yl)amino)-5-methylpyrimidin-4-yl)-1H-indol-7-yl)-1-oxoisoindolin-4-yl)morpholine-4-carboxamide]
